Measured values as given in ChEMBL document CHEMBL1201862, “PubChem BioAssay data set” (2004).
Active and inactive are the calls of the source.

What was measured:
[1] = intracellular Trypanosoma cruzi inhibitors in host cells – cell-based, plate reader, cherry-pick samples, set 3, dose response (AID 651818); type: functional;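 further: compounds incubated with infected cells for about four days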
[2] = Vero E6 cell cytotoxicity, dose response, cytotoxicity control for non-replicating M. tuberculosis project, secondary assay (AID 492998); type: functional, VeroE6; conditions: Vero C1008
[3] = cells; type: functional
[4] = cells
[5] = inhibitors of intracellular T. cruzi replication, confirmation, NIH3T3 host cells, beta-gal luminescence (AID 2044); type: functional, cell-based;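 further: intracellular parasites grown in NIH/3T3 mouse fibroblasts as host cells; luminescent beta-galactosidase reporter signal from transgenic T. cruzi replicating inside host cells; inhibitors lower the luminescence signal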
[6] = cytotoxicity toward NIH3T3 fibroblasts, dose response, counter-screen, cell-based, ATP luminescence, mouse fibroblasts (AID 2010); type: functional;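 further: cells exposed to compound for about 90 hours before reading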
[7] = P. falciparum Dd2 growth inhibitors, dose response, SYBR Green, cherry-picked samples (AID 1159567); type: functional, cell-based
[8] = biological target: T1, Estrogen receptor (Homo sapiens, UniProt P03372);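 further: potency for inhibiting coactivator peptide recruitment to the receptor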
T1 sequence (P03372 whole entry): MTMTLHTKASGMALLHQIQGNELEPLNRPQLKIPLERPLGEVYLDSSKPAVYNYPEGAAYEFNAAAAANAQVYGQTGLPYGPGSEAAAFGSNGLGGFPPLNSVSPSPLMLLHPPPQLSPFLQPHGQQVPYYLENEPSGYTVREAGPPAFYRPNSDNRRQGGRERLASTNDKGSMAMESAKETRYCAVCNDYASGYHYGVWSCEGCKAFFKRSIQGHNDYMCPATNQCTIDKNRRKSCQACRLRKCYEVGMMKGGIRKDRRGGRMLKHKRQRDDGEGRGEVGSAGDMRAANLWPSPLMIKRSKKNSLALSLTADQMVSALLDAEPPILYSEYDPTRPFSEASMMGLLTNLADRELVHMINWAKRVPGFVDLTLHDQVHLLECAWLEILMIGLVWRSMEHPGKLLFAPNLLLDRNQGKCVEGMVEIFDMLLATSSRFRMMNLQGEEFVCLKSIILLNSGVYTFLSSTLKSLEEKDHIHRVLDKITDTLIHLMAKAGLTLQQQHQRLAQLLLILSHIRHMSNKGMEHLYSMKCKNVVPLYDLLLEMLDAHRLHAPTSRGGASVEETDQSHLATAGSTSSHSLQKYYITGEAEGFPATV

[9] = biological target: Tumor necrosis factor (Homo sapiens, UniProt P01375); assay: TNFa-triggered NF-kB activation inhibitors, SAR follow-up, cell-based, revised (AID 2337); type: functional
[10] = tested on: HEK293; assay: cells; conditions: Homo sapiens
[11] = biological target: T2, Fatty acid synthase (Homo sapiens, UniProt P49327); assay: FAS thioesterase domain inhibitors, dose response, biochemical, kinetic fluorescence intensity (AID 624326); type: functional;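 further: rate of fluorescence rise from hydrolysis of a fluorogenic O-methyl fluorescein ester substrate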
[12] = biological target: T2, Fatty acid synthase; assay: FAS thioesterase domain inhibitors, dose response, biochemical, endpoint fluorescence intensity, uHTS hits (AID 624327); type: functional;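 further: fluorescence from hydrolysis of an O-methyl fluorescein acyl ester substrate by the enzyme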
[13] = biological target: Nonstructural protein 1 (Influenza A virus, UniProt Q194T2); type: functional, Influenza A virus (A/California/07/2009(H1N1))
[14] = biological target: T3, Adenosylmethionine-8-amino-7-oxononanoate aminotransferase (Mycobacterium tuberculosis, UniProt P9WQ81); assay: Mycobacterium tuberculosis BioA enzyme inhibitor Measured in Biochemical System Using Plate Reader - 2163-02_Inhibitor_Dose_CherryPick_Activity.; type: functional, Mycobacterium tuberculosis UT205
T3 sequence (P9WQ81 whole entry): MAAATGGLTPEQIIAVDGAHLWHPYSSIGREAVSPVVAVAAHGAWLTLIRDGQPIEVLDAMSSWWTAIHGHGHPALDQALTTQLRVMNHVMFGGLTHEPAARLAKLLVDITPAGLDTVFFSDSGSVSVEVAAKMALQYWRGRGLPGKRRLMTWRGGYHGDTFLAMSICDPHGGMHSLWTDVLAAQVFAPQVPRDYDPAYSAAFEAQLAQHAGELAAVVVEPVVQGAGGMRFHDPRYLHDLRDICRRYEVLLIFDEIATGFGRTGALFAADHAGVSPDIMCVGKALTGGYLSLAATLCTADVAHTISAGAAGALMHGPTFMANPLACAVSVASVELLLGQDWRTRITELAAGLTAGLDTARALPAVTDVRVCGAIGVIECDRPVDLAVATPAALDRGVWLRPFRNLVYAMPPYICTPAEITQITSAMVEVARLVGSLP

[15] = biological target: T4, DNA repair and recombination protein RAD54-like (Homo sapiens, UniProt Q92698); assay: inhibitors of human RAD54 branch migration, confirmation, biochemical, fluorescence, cherry-picked samples, dose series (AID 651657); type: functional
T4 sequence (Q92698 whole entry): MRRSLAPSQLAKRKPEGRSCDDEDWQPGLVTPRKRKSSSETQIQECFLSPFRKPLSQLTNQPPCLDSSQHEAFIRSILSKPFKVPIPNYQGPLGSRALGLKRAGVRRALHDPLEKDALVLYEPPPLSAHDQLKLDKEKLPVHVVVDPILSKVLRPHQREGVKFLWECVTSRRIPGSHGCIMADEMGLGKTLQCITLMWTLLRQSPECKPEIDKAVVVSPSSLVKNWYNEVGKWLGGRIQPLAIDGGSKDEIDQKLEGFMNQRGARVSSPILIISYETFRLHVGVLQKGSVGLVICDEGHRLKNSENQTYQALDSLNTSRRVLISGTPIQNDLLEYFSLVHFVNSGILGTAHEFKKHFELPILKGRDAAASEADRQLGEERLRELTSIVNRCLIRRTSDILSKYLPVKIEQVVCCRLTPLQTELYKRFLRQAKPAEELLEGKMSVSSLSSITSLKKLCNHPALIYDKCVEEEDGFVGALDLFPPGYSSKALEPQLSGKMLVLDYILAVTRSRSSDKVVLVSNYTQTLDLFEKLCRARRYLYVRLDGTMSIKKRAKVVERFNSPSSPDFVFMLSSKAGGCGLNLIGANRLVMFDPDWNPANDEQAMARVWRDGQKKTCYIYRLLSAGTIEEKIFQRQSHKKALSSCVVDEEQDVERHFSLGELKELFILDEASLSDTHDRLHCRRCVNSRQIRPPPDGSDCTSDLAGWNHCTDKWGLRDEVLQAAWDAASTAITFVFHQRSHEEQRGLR

[16] = tested on: HEK293; assay: cells; type: functional, cell-based; conditions: Homo sapiens
[17] = tested on: HEK293; assay: cells; type: functional, cell-based; conditions: Homo sapiens; remark: listed apart in the source
[18] = tested on: HEK293; assay: cells; type: functional, cell-based; conditions: Homo sapiens; remark: listed apart in the source
[19] = tested on: HEK293; assay: NOD2 signaling inhibitors in MDP-stimulated cells, cell-based, uHTS, luminescence (AID 2001); type: functional; conditions: Homo sapiens
[20] = tested on: HEK293; assay: NOD1 signaling inhibitors, primary screen, cell-based, luminescence, uHTS (AID 1578); type: functional; conditions: Homo sapiens
[21] = biological target: Nucleotide-binding oligomerization domain-containing protein 2 (Homo sapiens, UniProt Q9HC29); assay: NOD2 signaling inhibitors, cell-based, luminescence, uHTS, HEK293 (AID 1566); type: functional
[22] = biological target: Cytochrome P450 2C9 (Homo sapiens, UniProt P11712)
[23] = biological target: Cytochrome P450 3A4 (Homo sapiens, UniProt P08684); conditions: Potency;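 further: confirmatory qHTS run detecting inhibitors and substrates of CYP3A4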
[24] = microbe, parasite or virus in culture; type: functional; conditions: Mycobacterium tuberculosis
[25] = tested on: Vero; assay: cells; type: functional; conditions: Chlorocebus sabaeus
[26] = biological target: T5, Ubiquitin-conjugating enzyme E2 N (Homo sapiens, UniProt P61088); type: functional;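 further: Dose-response confirmation in a TR-FRET assay detecting UBC13-driven polyubiquitin chain formation, inhibition measured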
T5 sequence (P61088 whole entry): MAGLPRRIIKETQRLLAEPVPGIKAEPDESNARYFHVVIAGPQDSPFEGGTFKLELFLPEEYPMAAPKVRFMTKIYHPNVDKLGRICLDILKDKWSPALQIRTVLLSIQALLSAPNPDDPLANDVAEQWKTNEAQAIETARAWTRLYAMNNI

[27] = tested on: HeLa; assay: HeLa cell cytotoxicity, dose response, cytotoxicity control for MITF activator project, CellTiter-Glo luminescence, cherry-pick samples (AID 540259); type: functional, cell-based; conditions: Homo sapiens
[28] = tested on: INS1; assay: beta cell apoptosis inhibitors, cytokine rescue, dose response, luminescence, retest (AID 449756); type: functional, cell-based; conditions: Rattus norvegicus, INS1;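 further: cell death triggered by IL-1 beta plus TNF-alpha plus IFN-gamma mixture; protective hits raise ATP signal compared with cytokine alone wells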

Sequence of Cytochrome P450 3A4 (P08684 whole entry): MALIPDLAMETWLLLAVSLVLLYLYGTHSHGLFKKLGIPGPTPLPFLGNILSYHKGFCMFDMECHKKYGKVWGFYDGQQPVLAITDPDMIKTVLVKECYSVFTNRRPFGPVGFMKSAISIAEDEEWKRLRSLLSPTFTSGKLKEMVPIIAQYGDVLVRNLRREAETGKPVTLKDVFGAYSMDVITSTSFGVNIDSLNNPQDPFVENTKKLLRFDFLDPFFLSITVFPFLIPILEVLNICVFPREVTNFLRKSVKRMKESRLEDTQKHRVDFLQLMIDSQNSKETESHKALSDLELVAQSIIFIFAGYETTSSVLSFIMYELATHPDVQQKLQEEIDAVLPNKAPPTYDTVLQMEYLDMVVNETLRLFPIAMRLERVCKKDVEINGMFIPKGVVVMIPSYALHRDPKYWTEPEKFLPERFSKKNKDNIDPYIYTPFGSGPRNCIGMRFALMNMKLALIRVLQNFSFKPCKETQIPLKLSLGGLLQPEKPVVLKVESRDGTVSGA
T2 sequence (P49327 whole entry, the tested form may be a part): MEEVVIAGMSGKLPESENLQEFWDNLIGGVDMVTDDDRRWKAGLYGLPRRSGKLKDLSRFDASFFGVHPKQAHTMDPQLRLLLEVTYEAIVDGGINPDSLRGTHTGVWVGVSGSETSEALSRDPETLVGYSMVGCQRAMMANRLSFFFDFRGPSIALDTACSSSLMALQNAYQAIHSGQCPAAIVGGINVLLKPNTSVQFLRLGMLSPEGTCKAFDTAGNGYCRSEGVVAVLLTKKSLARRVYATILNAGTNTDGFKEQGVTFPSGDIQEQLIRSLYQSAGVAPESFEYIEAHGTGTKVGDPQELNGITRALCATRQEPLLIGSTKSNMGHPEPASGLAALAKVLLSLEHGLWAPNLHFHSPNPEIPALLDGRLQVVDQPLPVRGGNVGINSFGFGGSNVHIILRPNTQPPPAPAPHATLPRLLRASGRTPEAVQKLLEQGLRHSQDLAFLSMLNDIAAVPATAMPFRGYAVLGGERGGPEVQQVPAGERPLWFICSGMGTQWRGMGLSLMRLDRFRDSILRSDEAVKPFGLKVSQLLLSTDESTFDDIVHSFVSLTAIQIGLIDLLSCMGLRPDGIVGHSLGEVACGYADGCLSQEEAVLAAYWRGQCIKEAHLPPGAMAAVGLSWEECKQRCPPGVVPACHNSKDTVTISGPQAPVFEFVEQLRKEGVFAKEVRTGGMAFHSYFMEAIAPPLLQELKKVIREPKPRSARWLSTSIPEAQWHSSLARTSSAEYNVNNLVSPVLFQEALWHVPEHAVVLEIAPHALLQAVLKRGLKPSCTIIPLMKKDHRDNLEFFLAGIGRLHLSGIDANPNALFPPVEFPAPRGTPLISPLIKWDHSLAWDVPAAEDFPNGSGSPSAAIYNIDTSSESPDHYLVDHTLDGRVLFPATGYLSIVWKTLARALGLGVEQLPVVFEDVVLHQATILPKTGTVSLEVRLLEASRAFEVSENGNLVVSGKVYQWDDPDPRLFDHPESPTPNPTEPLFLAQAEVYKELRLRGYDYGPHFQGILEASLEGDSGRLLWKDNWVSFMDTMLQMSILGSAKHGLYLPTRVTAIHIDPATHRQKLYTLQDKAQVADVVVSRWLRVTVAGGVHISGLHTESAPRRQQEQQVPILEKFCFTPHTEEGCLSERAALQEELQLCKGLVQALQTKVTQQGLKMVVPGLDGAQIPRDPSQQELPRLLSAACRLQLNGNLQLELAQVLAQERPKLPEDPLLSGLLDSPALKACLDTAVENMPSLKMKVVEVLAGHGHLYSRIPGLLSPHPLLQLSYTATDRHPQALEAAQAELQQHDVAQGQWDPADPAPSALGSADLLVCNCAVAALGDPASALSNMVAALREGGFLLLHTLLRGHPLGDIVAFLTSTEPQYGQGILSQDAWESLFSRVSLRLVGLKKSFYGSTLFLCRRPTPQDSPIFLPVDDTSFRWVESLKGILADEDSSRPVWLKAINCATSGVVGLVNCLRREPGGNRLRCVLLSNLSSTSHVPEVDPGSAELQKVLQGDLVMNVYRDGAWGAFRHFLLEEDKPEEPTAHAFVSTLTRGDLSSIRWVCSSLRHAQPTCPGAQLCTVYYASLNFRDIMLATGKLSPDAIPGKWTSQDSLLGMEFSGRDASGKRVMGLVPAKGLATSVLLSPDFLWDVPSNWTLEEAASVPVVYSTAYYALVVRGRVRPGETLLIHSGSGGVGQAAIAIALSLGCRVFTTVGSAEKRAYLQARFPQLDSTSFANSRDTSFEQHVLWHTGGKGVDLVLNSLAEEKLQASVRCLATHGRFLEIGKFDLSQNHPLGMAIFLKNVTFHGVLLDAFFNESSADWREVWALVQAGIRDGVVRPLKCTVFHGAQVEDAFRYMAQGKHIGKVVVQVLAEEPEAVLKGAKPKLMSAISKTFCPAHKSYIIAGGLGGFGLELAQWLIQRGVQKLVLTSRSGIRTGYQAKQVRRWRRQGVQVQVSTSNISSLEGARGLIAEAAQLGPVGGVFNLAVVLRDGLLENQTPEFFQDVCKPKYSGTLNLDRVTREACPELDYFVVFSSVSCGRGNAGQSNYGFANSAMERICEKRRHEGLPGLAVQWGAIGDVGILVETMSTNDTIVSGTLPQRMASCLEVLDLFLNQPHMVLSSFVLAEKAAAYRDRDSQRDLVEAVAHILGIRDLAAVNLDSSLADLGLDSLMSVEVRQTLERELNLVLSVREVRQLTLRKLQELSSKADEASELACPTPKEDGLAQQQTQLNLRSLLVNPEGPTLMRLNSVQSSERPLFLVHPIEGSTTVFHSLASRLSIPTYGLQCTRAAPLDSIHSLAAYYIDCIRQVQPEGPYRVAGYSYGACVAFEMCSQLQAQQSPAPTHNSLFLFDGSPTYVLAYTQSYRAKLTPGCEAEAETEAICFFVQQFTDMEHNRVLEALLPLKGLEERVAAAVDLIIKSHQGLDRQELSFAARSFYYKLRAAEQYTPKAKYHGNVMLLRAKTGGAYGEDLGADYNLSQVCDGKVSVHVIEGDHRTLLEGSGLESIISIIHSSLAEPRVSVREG
Sequence of Nucleotide-binding oligomerization domain-containing protein 2 (Q9HC29 whole entry, the tested form may be a part): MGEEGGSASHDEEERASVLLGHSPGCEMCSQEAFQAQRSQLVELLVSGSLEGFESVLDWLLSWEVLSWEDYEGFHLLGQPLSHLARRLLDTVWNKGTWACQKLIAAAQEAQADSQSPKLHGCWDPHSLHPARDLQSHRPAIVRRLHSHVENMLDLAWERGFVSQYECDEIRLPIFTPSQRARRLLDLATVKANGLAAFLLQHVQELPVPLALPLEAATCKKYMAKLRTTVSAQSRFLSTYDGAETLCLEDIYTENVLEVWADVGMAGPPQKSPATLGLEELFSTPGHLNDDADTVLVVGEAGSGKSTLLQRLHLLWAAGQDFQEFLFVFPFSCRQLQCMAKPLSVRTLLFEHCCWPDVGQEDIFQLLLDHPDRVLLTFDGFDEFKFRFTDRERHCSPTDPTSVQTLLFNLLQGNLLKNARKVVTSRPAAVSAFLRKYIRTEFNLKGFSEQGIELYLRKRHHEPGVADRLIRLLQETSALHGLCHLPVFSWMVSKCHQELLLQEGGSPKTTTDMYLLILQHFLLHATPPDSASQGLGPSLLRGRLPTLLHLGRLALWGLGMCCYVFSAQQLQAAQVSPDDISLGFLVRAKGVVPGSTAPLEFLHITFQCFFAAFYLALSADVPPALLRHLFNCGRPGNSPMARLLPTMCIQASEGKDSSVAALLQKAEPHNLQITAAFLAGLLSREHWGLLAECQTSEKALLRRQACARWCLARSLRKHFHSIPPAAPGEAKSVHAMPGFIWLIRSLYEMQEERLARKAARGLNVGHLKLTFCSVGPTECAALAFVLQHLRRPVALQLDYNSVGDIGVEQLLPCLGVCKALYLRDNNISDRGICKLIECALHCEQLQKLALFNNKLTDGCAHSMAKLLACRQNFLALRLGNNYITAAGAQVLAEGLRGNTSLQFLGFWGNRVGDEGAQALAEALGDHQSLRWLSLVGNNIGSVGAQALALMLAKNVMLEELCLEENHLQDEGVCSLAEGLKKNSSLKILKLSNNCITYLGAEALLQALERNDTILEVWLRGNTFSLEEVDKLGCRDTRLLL
Sequence of Tumor necrosis factor (P01375 whole entry): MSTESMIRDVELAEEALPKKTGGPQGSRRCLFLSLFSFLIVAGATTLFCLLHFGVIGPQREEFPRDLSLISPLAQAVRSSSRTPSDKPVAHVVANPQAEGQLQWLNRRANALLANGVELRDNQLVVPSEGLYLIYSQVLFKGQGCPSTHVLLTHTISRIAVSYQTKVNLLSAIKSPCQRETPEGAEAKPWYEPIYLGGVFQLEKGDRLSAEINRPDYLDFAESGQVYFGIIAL
Sequence of Cytochrome P450 2C9 (P11712 whole entry): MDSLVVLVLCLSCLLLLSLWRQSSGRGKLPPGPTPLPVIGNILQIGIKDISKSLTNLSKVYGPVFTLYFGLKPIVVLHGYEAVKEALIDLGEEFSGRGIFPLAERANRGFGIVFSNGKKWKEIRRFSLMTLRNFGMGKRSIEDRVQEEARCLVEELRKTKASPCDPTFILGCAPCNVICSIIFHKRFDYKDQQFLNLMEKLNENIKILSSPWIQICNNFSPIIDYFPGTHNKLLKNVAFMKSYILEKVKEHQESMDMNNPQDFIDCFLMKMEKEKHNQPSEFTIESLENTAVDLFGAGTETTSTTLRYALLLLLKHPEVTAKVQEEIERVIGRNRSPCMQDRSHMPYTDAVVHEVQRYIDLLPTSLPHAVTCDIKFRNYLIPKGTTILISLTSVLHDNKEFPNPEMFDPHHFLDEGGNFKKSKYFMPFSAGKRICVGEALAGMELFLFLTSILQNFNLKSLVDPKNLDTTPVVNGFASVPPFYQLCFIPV
Sequence of Nonstructural protein 1 (Q194T2 whole entry): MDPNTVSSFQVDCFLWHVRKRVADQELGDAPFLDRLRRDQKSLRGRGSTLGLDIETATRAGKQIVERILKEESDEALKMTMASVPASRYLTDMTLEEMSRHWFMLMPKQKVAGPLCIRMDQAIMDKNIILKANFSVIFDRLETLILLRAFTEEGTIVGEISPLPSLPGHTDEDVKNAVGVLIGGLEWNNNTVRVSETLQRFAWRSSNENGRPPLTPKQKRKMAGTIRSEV

## C[C@@H]1CCCCO[C@@H](CN(C)CC2CCCCC2)[C@@H](C)CN([C@H](C)CO)C(=O)c2cc(NS(=O)(=O)c3ccc(Cl)cc3)ccc2O1
[1]
  AC50: 2.18 µM (active)

## O=C(Nc1nnc(-c2ccco2)o1)c1cccc2ccccc12
[2]
  CC50: > 20 µM (active)
[3]
  IC50: 4.54 µM (active)

## COc1ccccc1CN1CC(C(=O)NCCN(C)CCc2ccccc2)CCC1=O (centres undefined)
[4]
  EC50: 61 nM (active)
[5]
  EC50: < 100 nM (active)
[6]
  EC50: > 60 µM (not active)

## C[C@H](CO)N1C[C@H](C)[C@H](CN(C)Cc2ccccc2)Oc2ccc(NC(=O)Nc3ccc(C(F)(F)F)cc3)cc2C1=O
[1]
  AC50: 6.57 µM (active)

## C[C@H](CO)N1C[C@H](C)[C@@H](CN(C)Cc2ccc(-c3ccccc3)cc2)Oc2c(NC(=O)c3ccc(-c4nccs4)cc3)cccc2C1=O
[1]
  AC50: 3.54 µM (active)
[7]
  AC50: 5.28 µM (active)

## CC(C)CNC(=O)c1c(N)n(/N=C/c2ccccn2)c2nc3ccccc3nc12
[8]
  IC50: 15.9 µM (active)

## N#Cc1ccc(N2CCN(S(=O)(=O)c3ccc4c(c3)CCN4C(=O)C3CC3)CC2)cc1
[9]
  IC50: 13.3 µM (active)
[10]
  IC50: > 20 µM (inactive)

## Cc1nc2ccc([N+](=O)[O-])cc2c(=O)n1Cc1ccc(Br)cc1
[11]
  IC50: 0.719 µM (active)
[12]
  IC50: 0.623 µM (active)

## Cc1cccn2c(=O)c(C=C(C#N)C#N)c(N3CCN(c4ccccc4)CC3)nc12
[13]
  IC50: > 100 µM (active)

## C[C@@H]1CN([C@@H](C)CO)C(=O)Cc2cc(NC(=O)Cn3cnnn3)ccc2O[C@H]1CN(C)Cc1ccc2c(c1)OCO2
[14]
  AC50: 10.5 µM (active)

## COc1cc2c(C)nc3onc(-c4ccccc4)c3c2cc1OC
[11]
  IC50: 19.4 µM (active)
[12]
  IC50: 7.51 µM (active)

## COCCNC(=O)C[C@H]1CC[C@@H]2[C@H](COc3ccc(NC(=O)Nc4cccc(F)c4)cc3C(=O)N2C)O1
[14]
  AC50: 6.86 µM (active)

## COc1ccc2[nH]c3nc(SCc4nnc(-c5ccc(C)cc5)o4)nnc3c2c1
[8]
  IC50: 6.84 µM (active)

## CSc1cccc(NC(=O)CN(c2ccccc2)S(=O)(=O)N(C)C)c1
[8]
  IC50: > 50 µM (not active)

## COc1ccc(C(=O)CSc2nnc(C3CCCCC3)n2N)c(OC)c1
[8]
  IC50: > 50 µM (not active)

## CCN(CC)CC(=O)Nc1cccc2c1C(=O)c1ccccc1C2=O
[15]
  AC50: 100 µM (inactive)

## O=S(=O)(Nc1nc2ccccc2nc1Nc1ccc2c(c1)OCO2)c1ccc(F)cc1
[16]
  IC50: > 20 µM (inactive)
[17]
  IC50: 8.92 µM (active)
[18]
  IC50: > 20 µM (inactive)
[19]
  IC50: 6.29 µM (active)
[20]
  EC50: 2.81 µM (active)
[21]
  EC50: 11.6 µM (active)

## O=C(NCc1cn(-c2ccccc2)nc1-c1ccccc1)c1cc([N+](=O)[O-])cc([N+](=O)[O-])c1
[4]
  EC50: 139 nM (active)
[5]
  EC50: < 100 nM (active)
[22]
  AC50: 2.82 µM (inconclusive)
[6]
  EC50: > 60 µM (not active)

## COc1ccccc1NC(=O)CSc1nc2sc(C)c(C)c2c(=O)n1C
[16]
  IC50: > 20 µM (inactive)
[17]
  IC50: 12.7 µM (active)
[18]
  IC50: > 20 µM (inactive)
[19]
  IC50: 8.8 µM (active)
[20]
  EC50: > 20 µM (inactive)
[21]
  EC50: > 20 µM (inactive)

## C[C@H]1CN([C@@H](C)CO)C(=O)Cc2cc(NC(=O)Nc3ccc(C(F)(F)F)cc3)ccc2O[C@@H]1CN(C)Cc1ccc(C(F)(F)F)cc1
[1]
  AC50: 5.04 µM (active)

## Cc1ccc([N+](=O)[O-])cc1S(=O)(=O)NCC1COc2ccccc2O1 (centres undefined)
[11]
  IC50: 4.43 µM (active)
[12]
  IC50: 5.17 µM (active)

## COC(=O)N1[C@H](C)C=C[C@]1(Cc1ccccc1)C(=O)NCc1ccc(C)o1
[23]
  AC50: 7.94 µM (inconclusive)

## CC(=O)C1=C(O)C=C2Oc3c(C(C)=O)c(O)c(C)c(O)c3[C@]2(C)C1=O [(-)-USNIC ACID]
[23]
  AC50: 31.6 µM (inconclusive)

## CC/C(=C(\c1ccc(O)cc1)c1ccc(OCCN(C)C)cc1)c1ccccc1 [AFIMOXIFENE]
[24]
  CC50: 16.6 µM (active)
[25]
  CC50: 19.4 µM (active)
[26]
  IC50: > 20 µM (inactive)
[23]
  AC50: 25.1 µM (inconclusive)

## Cc1ccccc1Cn1c(C)nc2ccc([N+](=O)[O-])cc2c1=O
[11]
  IC50: 7.08 µM (active)
[12]
  IC50: 9.84 µM (active)

## Cc1c(-c2cc(Br)ccc2O)nc2cc3c(cc2c1C)OCO3
[15]
  AC50: 57.5 µM (active)

## Cc1cc(OCC(=O)Nc2ccncc2)cc(C)c1Br
[16]
  IC50: 13.3 µM (active)
[17]
  IC50: 5.24 µM (active)
[18]
  IC50: > 20 µM (inactive)
[19]
  IC50: 6.86 µM (active)
[20]
  EC50: 3.21 µM (active)
[21]
  EC50: 8.76 µM (active)

## O=C(NCCc1cccs1)c1ccc(Cl)c(Cl)c1
[27]
  AC50: 44.2 µM (active)

## Cc1ccc(C(=O)Nc2ncccc2S(=O)(=O)c2ccccc2)cc1
[27]
  AC50: > 350 µM (inactive)

## CCCCCCOc1ccc(CN2CCN(C)CC2)cc1
[4]
  EC50: 76 nM (active)
[5]
  EC50: < 100 nM (active)
[6]
  EC50: 4.32 µM (active)
[28]
  AC50: 4.04 µM (active)

## Fc1ccc(F)c(CNc2ncnc3cc(Cl)ccc23)c1
[16]
  IC50: 11.9 µM (active)
[17]
  IC50: 6.42 µM (active)
[18]
  IC50: > 20 µM (inactive)
[19]
  IC50: 12.7 µM (inactive)
[20]
  EC50: 9.76 µM (active)
[21]
  EC50: > 20 µM (inactive)
